Laboratory results as given in US9963461B2, “Phillygenin ibuprofen ester, preparation method therefor, and application thereof” (priority 2014, dated 2018).
Where two headings read alike, the source gives them in different places. Marks after values point to notes of the source that are not given here.

Experiments:
influenza virus [1] = assay type: in vivo, Kunming mice; conditions: lung suspensions, influenza virus infected mice, 5 days
influenza virus [2] = assay type: in vivo, Kunming mice; conditions: for Lung index (X ± S) / Lung index Inhibitive rate (%): influenza virus infected mice, 5 days
[3] = tested on: beer yeast induced rat fever; assay: Beer yeast induced rat fever; assay type: in vivo, Wistar rats
Procedure: Male Wistar rats were selected, weighing 180-200 g. Before the test, WSC-411P portable digital thermometer was used to measure the normal rectal temperature twice (with certain interval for each time), and the average value of the two measurements was taken as the normal body temperature of the rat. Then 70 rats with the body temperature between 36.5° C. and 38° C. were chosen to be randomly divided into 7 groups by weight: the model (0.5% carboxymethylcellulose) group, the 2.5, 5, and 10 mg/kg phillygenin ibuprofen ester groups, the positive drug paracetamol (100 mg/kg) group, the ibuprofen group (i.e. prodrug control group, 300 mg/kg), the phillygenin group (100 mg/kg), with 10 rats for each group. Each group of rats were subjected to back subcutaneous injection with 10% fresh beer yeast suspension of 10 ml/kg to induce heat. After administration of 10% fresh beer yeast suspension for 6.0 h, phillygenin ibuprofen ester and paracetamol were both subjected to intragastric administration, and the model group was intragastrically administrated with equal volume of 0.5% carboxymethylcellulose. Rectal temperature was measured after 1 h, 2 h, 3 h and 4 h of the administration respectively. Changes in the body temperature were observed and difference between the groups was compared by inter-group t test processing through antipyretic percentage.

parainfluenza virus [4] = assay type: in vivo, Kunming mice; conditions: mouse, in vivo
parainfluenza virus [5] = assay type: in vivo, Kunming mice; conditions: for Lung index (X ± S) / Lung index Inhibitive rate (%): parainfluenza virus infected mice, 5 days
Solubility = assay type: physicochemical
[6] = tested on: rabbit fever induced by typhoid and paratyphoid vaccine; assay: Rabbit fever induced by typhoid and paratyphoid vaccine; assay type: in vivo, Japanese white rabbits; conditions: 1.25 mg/kg
Procedure: Japanese male big-ear white rabbits, weighing 1.5-2.0 kg. Before the test, WSC-411P portable digital thermometer was used to measure the normal rectal temperature twice (with certain interval for each time), and the average value was taken as the normal body temperature. Then 48 Japanese big-ear white rabbits with body temperature of 38-39.6° C. were selected and randomly divided into 8 groups by weight, namely: the blank control (normal saline) group, the model control (0.5% carboxymethylcellulose) group, the ibuprofen group (300 mg/kg), the phillygenin group (10 mg/kg), the 1.25, 2.5, and 5 mg/kg phillygenin ibuprofen ester groups and the positive drug paracetamol (50 mg/kg) group. The rabbits were fixed in a fixator. The blank control group was intravenously injected with normal saline of 1 ml/kg via the ear margin; The model control group and the drug groups were intravenously injected with typhoid and paratyphoid vaccines of 0.8 ml/kg via the ear margin. When the body temperature rise of the rabbits was greater than 1° C. (requiring about 1-1.5 h, which was restricted to 1 h in this test), the blank control group and the model group were administered intragastrically with 0.5% carboxymethycellulose of 1 ml/kg, and the drug groups were administered intragastrically with phillygenin ibuprofen ester and paracetamol. […]

[7] = 2.5 mg/kg, 1 h after administration
[8] = 2.5 mg/kg, 2 h after administration
[9] = 2.5 mg/kg, 3 h after administration
[10] = 2.5 mg/kg, 4 h after administration
[11] = 5.0 mg/kg, 1 h after administration
[12] = 5.0 mg/kg, 2 h after administration
[13] = 5.0 mg/kg, 3 h after administration
[14] = 5.0 mg/kg, 4 h after administration
[15] = 10.0 mg/kg, 1 h after administration
[16] = 10.0 mg/kg, 3 h after administration
[17] = 10.0 mg/kg, 4 h after administration
[18] = time after administration (min) 30
[19] = time after administration (min) 60

COc1ccc([C@H]2OCC3C2CO[C@H]3c2ccc(OC)c(OC(=O)C(C)c3ccc(CC(C)C)cc3)c2)cc1OC (some centres unmarked) [Phillygenin ibuprofen ester, phillygenin ibuprofen ester]
Hemagglutination titer (InX) (influenza virus [1]; 3.25 mg/kg/d): 22.01 ± 1.420
Hemagglutination titer Inhibitive rate (%) (influenza virus [1]; 3.25 mg/kg/d): 32.07%
Hemagglutination titer (InX) (influenza virus [1]; 13.0 mg/kg/d): 19.32 ± 0.624
Hemagglutination titer Inhibitive rate (%) (influenza virus [1]; 13.0 mg/kg/d): 40.36%
Lung index (X ± S) (influenza virus [2]; 4.0 mg/kg/d intragastric): 1.222 ± 0.040
Lung index Inhibitive rate (%) (influenza virus [2]; 4.0 mg/kg/d intragastric): 17.90%
Lung index (X ± S) (influenza virus [2]; 8.0 mg/kg/d intragastric): 1.190 ± 0.061
Lung index Inhibitive rate (%) (influenza virus [2]; 8.0 mg/kg/d intragastric): 20.05%
Lung index (X ± S) (influenza virus [2]; 13.0 mg/kg/d intragastric): 1.147 ± 0.048
Lung index Inhibitive rate (%) (influenza virus [2]; 13.0 mg/kg/d intragastric): 22.94%
effect on average lung index vs infection model group (influenza virus [2]; mouse, in vivo): certain protective effect
Body temperature (° C.) [3, 7]: 38.93 ± 0.43 °C
antipyretic percentage (%) [3, 7]: −1.01 ± 1.05 %
Body temperature (° C.) [3, 8]: 38.75 ± 0.43 °C
antipyretic percentage (%) [3, 8]: −1.48 ± 1.11 %
Body temperature (° C.) [3, 9]: 38.56 ± 0.52 °C
antipyretic percentage (%) [3, 9]: −1.97 ± 1.67 %
Body temperature (° C.) [3, 10]: 38.25 ± 0.58 °C
antipyretic percentage (%) [3, 10]: −2.47 ± 1.80 %
Body temperature (° C.) [3, 11]: 38.48 ± 0.59 °C
antipyretic percentage (%) [3, 11]: −1.91 ± 0.40 %
Body temperature (° C.) [3, 12]: 38.33 ± 0.50 °C
antipyretic percentage (%) [3, 12]: −2.29 ± 0.54**^Δ▴▴ %
Body temperature (° C.) [3, 13]: 37.85 ± 0.33 °C
antipyretic percentage (%) [3, 13]: −3.52 ± 0.38***^Δ▴ %
Body temperature (° C.) [3, 14]: 37.67 ± 0.45 °C
antipyretic percentage (%) [3, 14]: −3.98 ± 0.52***^Δ▴▴ %
Body temperature (° C.) [3, 15]: 38.61 ± 0.51 °C
antipyretic percentage (%) [3, 15]: −2.10 ± 0.53**^Δ▴▴ %
Body temperature (° C.) ([3]; 10.0 mg/kg, 2 h after administration): 39.13 ± 0.45 °C
Body temperature (° C.) [3, 16]: 37.8 ± 0.40 °C
antipyretic percentage (%) [3, 16]: −4.01 ± 1.12***^Δ▴▴ %
Body temperature (° C.) [3, 17]: 37.74 ± 0.31 °C
antipyretic percentage (%) [3, 17]: −4.30 ± 1.26***^Δ▴▴ %
effect on the rat fever induced by beer yeast suspension vs model group ([3]; medium and high dose groups (5, 10 mg/kg), 1 h, 2 h, 3 h and 4 h after administration): significant cooling effects
Hemagglutination titer (InX) (parainfluenza virus [4]; 3.25 mg/kg/day): 21.55 ± 0.857
Hemagglutination titer Inhibitive rate (%) (parainfluenza virus [4]; 3.25 mg/kg/day): 34.90%
Hemagglutination titer (InX) (parainfluenza virus [4]; 13 mg/kg/day): 19.75 ± 0.902
Hemagglutination titer Inhibitive rate (%) (parainfluenza virus [4]; 13 mg/kg/day): 40.34%
effect on average lung index vs infection model group (parainfluenza virus [5]; mouse, in vivo): certain protective effect
Lung index (X ± S) (parainfluenza virus [5]; 3.25 mg/kg/d intragastric): 1.320 ± 0.053
Lung index Inhibitive rate (%) (parainfluenza virus [5]; 3.25 mg/kg/d intragastric): 17.01%
Lung index (X ± S) (parainfluenza virus [5]; 13.0 mg/kg/d intragastric): 1.237 ± 0.070
Lung index Inhibitive rate (%) (parainfluenza virus [5]; 13.0 mg/kg/d intragastric): 22.25%
solubility (Solubility): soluble in methanol; chloroform, and dichloromethane
Body temperature (° C.) [6, 18]: 40.68 ± 0.41 °C
antipyretic percentage (%) [6, 18]: 0.98 ± 0.11%
Body temperature (° C.) [6, 19]: 40.61 ± 0.38 °C
antipyretic percentage (%) [6, 19]: −1.15 ± 0.15 %
Body temperature (° C.) ([6]; time after administration (min) 90): 40.50 ± 0.39 °C
